Experimental data taken from ChEMBL document CHEMBL1201862, “PubChem BioAssay data set” (2004).
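Method: 48-hour compound exposure of cells in 96-well plates, five concentrations, linear interpolation of endpoints. GI50 marks 50% less growth.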 Activity calls are given as the source filed them. No stated cut-off is given here; in the data, active = GI50 up to about 1.1 µM and inactive = higher.

Experiments:
Assay in all cases: NCI anticancer screen, dose series, 48 h
HCT-116 = test system: HCT-116
HOP-92 = test system: HOP-92
K562 = test system: K562
M14 = test system: M14
MCF7 = test system: MCF7
NCI-H23 = test system: NCI-H23
PC-3 = test system: PC-3
RPMI-8226 = test system: RPMI-8226
RXF 393 = test system: RXF 393
SF-295 = test system: SF-295
SF-539 = test system: SF-539
SK-MEL-28 = test system: SK-MEL-28
SK-MEL-5 = test system: SK-MEL-5
SK-OV-3 = test system: SK-OV-3
SR = test system: SR
T47D = test system: T47D
UACC-257 = test system: UACC-257
UO-31 = test system: UO-31
A498 = test system: A498

SMILES	GI50 (HCT-116)	GI50 (HOP-92)	GI50 (K562)	GI50 (M14)	GI50 (MCF7)	GI50 (NCI-H23)	GI50 (PC-3)	GI50 (RPMI-8226)	GI50 (RXF 393)	GI50 (SF-295)	GI50 (SF-539)	GI50 (SK-MEL-28)	GI50 (SK-MEL-5)	GI50 (SK-OV-3)	GI50 (SR)	GI50 (T47D)	GI50 (UACC-257)	GI50 (UO-31)	GI50 (A498)
Cc1ccc(N/N=C/C2=CC(C)(C)C(C#N)(C#N)C(O)=C2C#N)cc1	35.4 µM (inactive)	5.89 µM (inactive)	21.3 µM (inactive)	49.4 µM (inactive)	> 100 µM (inactive)	39.4 µM (inactive)	7.23 µM (inactive)	22.2 µM (inactive)	33.2 µM (inactive)	69.3 µM (inactive)	> 100 µM (inactive)	85.5 µM (inactive)	40.7 µM (inactive)	58.2 µM (inactive)	14.3 µM (inactive)	67.3 µM (inactive)	38.8 µM (inactive)	37.7 µM (inactive)	
CCOC(=O)c1cc(C)nc2c1c(=O)n(-c1ccccc1)c(=O)n2CCCCN1CCN(c2ccccc2)CC1	> 100 µM (inactive)	> 100 µM (inactive)	24.9 µM (inactive)	38.9 µM (inactive)	28.3 µM (inactive)	77.3 µM (inactive)	47.9 µM (inactive)	15.7 µM (inactive)	> 100 µM (inactive)	> 100 µM (inactive)		> 100 µM (inactive)	38.6 µM (inactive)	> 100 µM (inactive)	19 µM (inactive)	24.3 µM (inactive)	27.8 µM (inactive)	6.17 µM (inactive)	27.6 µM (inactive)
O=C1CSc2nnc(CCCCCCCCc3nnc4n3NC(=O)CS4)n2N1	91.2 µM (inactive)	82 µM (inactive)	37.8 µM (inactive)	> 100 µM (inactive)	45.6 µM (inactive)	> 100 µM (inactive)	> 100 µM (inactive)	28.6 µM (inactive)		85.1 µM (inactive)	48.9 µM (inactive)	> 100 µM (inactive)		> 100 µM (inactive)	30.8 µM (inactive)	> 100 µM (inactive)	42.6 µM (inactive)	> 100 µM (inactive)	> 100 µM (inactive)
Cn1ccnc1CCc1ccc(F)cc1F			> 100 µM (inactive)	> 100 µM (inactive)	> 100 µM (inactive)	> 100 µM (inactive)	> 100 µM (inactive)	> 100 µM (inactive)	> 100 µM (inactive)	> 100 µM (inactive)	> 100 µM (inactive)	> 100 µM (inactive)	> 100 µM (inactive)	> 100 µM (inactive)	> 100 µM (inactive)	> 100 µM (inactive)		> 100 µM (inactive)	> 100 µM (inactive)
Cc1ccc2c(=O)[nH]sc2c1	31.9 µM (inactive)		5.58 µM (inactive)	11.7 µM (inactive)	17.1 µM (inactive)	17.7 µM (inactive)	15.7 µM (inactive)	5.31 µM (inactive)	15.3 µM (inactive)	54.5 µM (inactive)	12.6 µM (inactive)	17.9 µM (inactive)	12.9 µM (inactive)	> 100 µM (inactive)	3.69 µM (inactive)	14.8 µM (inactive)	18.4 µM (inactive)		64.1 µM (inactive)
Cc1ccc(S(=O)(=O)NC(=O)NCC(=O)NCC(=O)O)cc1	> 100 µM (inactive)	> 100 µM (inactive)	> 100 µM (inactive)	> 100 µM (inactive)	> 100 µM (inactive)	> 100 µM (inactive)	> 100 µM (inactive)	> 100 µM (inactive)	> 100 µM (inactive)	> 100 µM (inactive)	> 100 µM (inactive)	> 100 µM (inactive)	> 100 µM (inactive)	> 100 µM (inactive)	> 100 µM (inactive)	> 100 µM (inactive)	> 100 µM (inactive)	> 100 µM (inactive)	> 100 µM (inactive)
N#CC(C#N)C1CN2CCC1CC2 (configuration not stated)	> 100 µM (inactive)		> 100 µM (inactive)	> 100 µM (inactive)	> 100 µM (inactive)	> 100 µM (inactive)	> 100 µM (inactive)	> 100 µM (inactive)	90.4 µM (inactive)	> 100 µM (inactive)	> 100 µM (inactive)	> 100 µM (inactive)	> 100 µM (inactive)	> 100 µM (inactive)	> 100 µM (inactive)	> 100 µM (inactive)	> 100 µM (inactive)	> 100 µM (inactive)	> 100 µM (inactive)
NCCCCNCCCN1CC1	2.42 µM (inactive)	0.279 µM (active)	1.75 µM (inactive)	2.89 µM (inactive)	20.6 µM (inactive)	2.57 µM (inactive)	5.22 µM (inactive)	8 µM (inactive)	0.123 µM (active)	4.09 µM (inactive)	0.628 µM (active)	1.72 µM (inactive)	1.71 µM (inactive)	0.977 µM (active)	2.29 µM (inactive)	0.354 µM (active)	5.06 µM (inactive)	1.77 µM (inactive)	0.319 µM (active)
